Patent publication US9546367B2, “siRNA compositions and methods for inhibiting gene expression in tumor initiating cells of breast cancer” (priority 2011, dated 2017)

Tested on: BCM2665 xenografts
Experiment: short-term in vivo siRNA (multistage particle) treatment, BCM2665 patient-derived xenograft
Design: species or system SCID-Beige mice
Conditions: for tumor volume: BCM2665; for secondary MSFE: BCM2665 xenograft cells, tumors collected after two weeks; for Aldefluor levels: BCM2665 xenografts, reduction not statistically significant
Protocol: FIG. 10A, FIG. 10B, FIG. 10C, and FIG. 10D illustrate the short-term, in vivo treatment of siRNA in triple-negative, patient-derived human cancer in a murine model xenograft, BCM2665. BCM2665 cells were transplanted into cleared mammary fat pad of SCID beige mice (n=9). These tumors were randomized into the same six groups as stated in the preceding figure, and treated in a manner identical to the SUM159 xenografts. […] RPL39 and MLF2 siRNA respectively. […] Data were analyzed by one-way ANOVA, and are plotted as mean±SEM for n=9 replicates; *p<0.05;
The effect of MLF2 and RPL39 using siRNA packaged in multistage nanoparticles in two different triple negative models were studied. SUM159 and a patient-derived human cancer xenograft (BCM2665) from a primary human breast cancer transplanted in SCID-Beige mice, the test group had 54 mice per xenograft line, and 9 mice per treatment arm. When tumor sizes reached 150 to 300 mm^3, mice were divided into six groups: (1) vehicle-treated, (2) chemotherapy on day 0 with one dose of docetaxel 20 mg/kg by intraperitoneal (i.p.) injection. (3) siRNA against MLF2 packaged in nanoparticles (single injection intravenous (i.v.) on Day 1), (4) combination treatment with docetaxel (20 mg/kg i.p. on Day 1) and siRNA against MLF2 (single injection i.v. on Day 1), (5) siRNA against RPL39 packaged in nanoparticles (single injection i.v. on Day 1), and (6) combination treatment with docetaxel (20 mg/kg i.p. on Day 1) and siRNA against inhibitor […] (single injection iv. on Day 1). The same dose (15 μg siRNA) was used in all experiments. Animals were sacrificed on Day 14. The tumors were harvested and analyzed for downstream effects on BCSC self-renewal using FACS analysis, and MSFE.
The fraction of BCSCs in the xenograft tumors from the six treatment groups were processed by mincing and digesting the tumors using collagenase type III, for 3 hrs at 37° C. in order to dissociate the tumors into single cells. Changes in CD44+/CD24/Lin− and Aldefluor® were analyzed as described previously (Li et al., 2008). Briefly, cells were stained with primary antibodies antiCD44 labeled APC (dilution 1:10. BD Biosciences), anti-CD24-labeled FITC (dilution 1:10, BD Biosciences), and additionally with H2KD-labeled PE to eliminate all mouse, lineage-positive cells. The cells were incubated in HBSS (Hanks Balanced Salt Solution, GIBCO) for 15 min on ice with 2% FBS for the antibodies and 45 min for Aldefluor® reagent. Following incubation, cells were washed once with HBSS and re-suspended in HBSS supplemented with 2% FBS. […] (PI) was added to the cells for live/dead gating prior to FACS analysis.
Mammosphere formation efficiency, the in vitro assay for stem cell self-renewal, was performed as described previously (Dontu et al., 2003; Dontu et al., 2005; Li et al., 2008). Single cells were plated in ultra-low attachment plates (Corning, Acton, Mass., USA) at the density 40,000 viable cells/mL for BCM2665 in primary culture, and at the density 10,000 viable cells/mL in secondary culture. For mammosphere culture, cells were grown in serum-free mammary epithelial basal medium (MEGM) (Lonza, Inc.) supplemented with B27 (Invitrogen), 20 ng/mL EGF (BD Biosciences), and 1% heparin (Sigma Chemical Co.) in a humidified incubator ([…]: 95% air, 37° C. for 14 days, as previously described (Li et al., 2008).

[1] = siRNA alone (15 μg i.v., MSV) vs vehicle
[2] = siRNA+chemotherapy vs standard-dose docetaxel (20 mg/kg)

Substance | tumor volume [1] | tumor volume [2] | secondary MSFE | Aldefluor levels
MLF2 siRNA: siRNA against myeloid leukemia factor 2; sense SEQ ID NO: 3 CCCTGATGGATCCCTTTGCTAT, antisense SEQ ID NO: 19 ATAGCAAAGGGATCCATCAGGA (packaged in nanoliposomes, chemistry not given here, further chemistry not given here) | Significant reduction | Similarly, observations were obtained | Significant decrease | reduction
RPL39 siRNA: siRNA against ribosomal protein L39-like; sense SEQ ID NO: 15 ACGATTCCTGGCCAAGAAACAA, antisense SEQ ID NO: 31 TTGTTTCTTGGCCAGGAATCGC (listed as DNA, chemistry not fully specified) | Significant reduction | Similarly, observations were obtained | Significant decrease | reduction
